In patent US10159249B2 (BAYER CROPSCIENCE AKTIENGESELLSCHAFT, priority 2013, dated 2018):
Read-outs that look alike come from different tables or passages of the source. Marks after values point to notes of the source that are not given here.

Columns and labels:
[1] = target: PfHPPD-Evo41 (SEQ ID No 29) (Pseudomonas sp., UniProt P80064, A172V/A339Q/A53E/D148E/D45N/E105D/E287Q/E300V/E334P/F143Y/G286D/G335W/H150N/H254A/H63N/I158V/I187A/I249V/K338A/K92N/L18F/N24G/N280D/S245T/S257K/S301E/T205S/V65I); assay: biochemical; design: species or system Pseudomonas fluorescens
PfHPPD336W (SEQ ID No 4) = PfHPPD336W (SEQ ID No 4) (Pseudomonas sp., UniProt P80064, G335W); assay: biochemical; design: species or system Pseudomonas fluorescens
[2] = system: transgenic soybean T1 plants expressing PfHPPD-Evo41; format: in vivo; details: for number of events, herbicide tolerance class 0 (41%-100% damaged leaf area) / number of events, herbicide tolerance class 1 (16%-40% damaged leaf area) / number of events, herbicide tolerance class 2 (6%-15% damaged leaf area) / number of events, herbicide tolerance class 3 (0%-5% damaged leaf area): soybean PfHPPD-Evo41, scored after 21 days
Amaranthus retroflexus = details: (A) 50 g ai/ha; application at 6 leaf stage; assessment 14 days after application
[3] = system: transgenic soybean T1 plants expressing PfHPPD-G336W; format: in vivo; details: for number of events, herbicide tolerance class 0 (41%-100% damaged leaf area) / number of events, herbicide tolerance class 1 (16%-40% damaged leaf area) / number of events, herbicide tolerance class 2 (6%-15% damaged leaf area) / number of events, herbicide tolerance class 3 (0%-5% damaged leaf area): scored after 21 days
[4] = system: Control maize plants (EPSPS selectable marker gene, no HPPD variant); assay: Greenhouse trial, maize T0 plants, leaf area damage; format: in vivo; details: for number of events, herbicide tolerance class 0 (41%-100% damaged leaf area) / number of events, herbicide tolerance class 1 (16%-40% damaged leaf area) / number of events, herbicide tolerance class 2 (6%-15% damaged leaf area) / number of events, herbicide tolerance class 3 (0%-5% damaged leaf area): maize Control
Procedure: Regenerated T0 events from tissue culture were transplanted into two inch square pots with synthetic soil (Fafard® Mix) and controlled-released fertilizer (Haifa Multicote™; polymer-coated controlled-release fertilizer, NPK Pro 18-6-12+Micronutrients) and cultivated in the greenhouse (GH) under supplementary high pressure sodium light for 12 days at a maximum of 30° C. during the day and a minimum of 22° C. at night. Fully recovered plants were transferred into five inch square pots filled with synthetic soil and control released fertilizer under the same environmental conditions. […] All herbicide treatments were conducted in a DeVries Tracker Sprayer system with standard application protocols, which are well known in the art. As a spray control T0 events have been sprayed with the adjunvant mixture lacking the herbicide.
A rating of “1” was assigned to plants having a moderate tolerance with 16% to 40% damage of total leaf area. A rating of “2” was assigned to plants with good tolerance within the range of 6% to 15% damage of total leaf area.

Digitaria horizontalis = assay: Field trial, weed efficacy, post applied; format: in vivo; details: (A) 50 g ai/ha; application at 2 tillers; assessment 14 days after application
[5] = system: transgenic soybean T1 plants expressing PfHPPD-Evo40; format: in vivo; details: for number of events, herbicide tolerance class 0 (41%-100% damaged leaf area) / number of events, herbicide tolerance class 1 (16%-40% damaged leaf area) / number of events, herbicide tolerance class 2 (6%-15% damaged leaf area) / number of events, herbicide tolerance class 3 (0%-5% damaged leaf area): soybean PfHPPD-Evo40, scored after 21 days
PfHPPD (SEQ ID No 46) = target: T1, PfHPPD (SEQ ID No 46) (Pseudomonas sp., UniProt P80064); assay: HPPD activity in presence of inhibitor, HGD assay; format: biochemical, Pseudomonas fluorescens
T1 construct: made in house; host or cells: E. coli K-12 BL21, vector pSE420(RI)NX-PfHPPD
Procedure: (§1) With the HGD assay HPPD activity was measured at room temperature by adding appropriate amounts of HPPD to a solution of 200 mM Tris-HCl pH 7.6, 10 mM ascorbate, 20 μM FeSO4, 650 units of catalase, 8 μg HGA dioxygenase (HGA: homogentisate) and 600 μM HPP in a total volume of 1 ml. Initial reaction rates were determined from the increase in absorbance at 318 nm due to the formation of maleylacetoacetate (ε318=11,900 M-1 cm-1).
(§2) In cases, the symbol “>” is used this means that the value was far higher than the one indicated but could not be precisely calculated within in the range of concentration of inhibitor tested.
(§3) In the 1st column of Table 1, the HPPD employed in the assay is named and in the 2nd column of Table 1, the corresponding SEQ ID No of present invention is disclosed.

Axmi428H (SEQ ID No 31) = Axmi428H (SEQ ID No 31) (Comamonas testosteroni, UniProt A0A8B4SBH1); assay: HPPD activity in presence of inhibitor, HGD assay; format: biochemical, Pseudomonas (=Comamonas) testosteroni; details: 0.2 μM inhibitor
Procedure: as §1, §2, §3

[6] = 25 g AI/ha, evaluation 9 days after treatment
[7] = 50 g AI/ha, six days after application
[8] = 100 g AI/ha, six days after application

T1 sequence (P80064 other isoform, or with tags, fused parts or gaps with the stated changes): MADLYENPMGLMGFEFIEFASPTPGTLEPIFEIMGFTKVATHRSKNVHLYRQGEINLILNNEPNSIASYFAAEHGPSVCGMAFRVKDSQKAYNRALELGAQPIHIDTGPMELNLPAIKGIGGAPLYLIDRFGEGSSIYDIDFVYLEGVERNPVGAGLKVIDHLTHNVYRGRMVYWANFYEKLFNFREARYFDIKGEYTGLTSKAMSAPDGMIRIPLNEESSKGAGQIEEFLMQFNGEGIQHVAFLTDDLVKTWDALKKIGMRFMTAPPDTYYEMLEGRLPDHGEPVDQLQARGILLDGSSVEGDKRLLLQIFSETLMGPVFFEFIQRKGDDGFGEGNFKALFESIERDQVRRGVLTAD
PfHPPD-Evo41 (SEQ ID No 29), sequence (P80064 1-354 with tags or gaps with the stated changes limits assumed): as the sequence (P80064 other isoform, or with tags, fused parts or gaps with the stated changes) above, with E335P, G336W, K339A, A340Q counted along it
PfHPPD336W (SEQ ID No 4), sequence (P80064 1-354 with tags or gaps with the stated changes): as the sequence (P80064 other isoform, or with tags, fused parts or gaps with the stated changes) above, with G336W counted along it
Axmi428H (SEQ ID No 31), sequence (A0A8B4SBH1 1-373): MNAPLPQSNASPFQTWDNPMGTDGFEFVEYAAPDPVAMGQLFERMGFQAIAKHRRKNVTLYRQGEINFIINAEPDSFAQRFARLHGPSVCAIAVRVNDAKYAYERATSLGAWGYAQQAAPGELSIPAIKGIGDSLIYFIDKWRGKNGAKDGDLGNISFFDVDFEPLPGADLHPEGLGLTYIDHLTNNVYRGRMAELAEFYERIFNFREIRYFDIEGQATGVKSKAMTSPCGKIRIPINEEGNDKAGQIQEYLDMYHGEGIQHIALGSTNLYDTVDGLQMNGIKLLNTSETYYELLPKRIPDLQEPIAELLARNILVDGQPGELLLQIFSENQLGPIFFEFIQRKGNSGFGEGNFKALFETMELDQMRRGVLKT

CSc1c(C(F)(F)F)ccc(C(=O)Nc2nnnn2C)c1Cl
IC50 [1]: 200 nM | % inhibition at 0.2 μM ([1]; 0.2 μM inhibitor, HGD assay): 50% | IC50 (PfHPPD336W (SEQ ID No 4)): 200 nM | % inhibition at 0.2 μM (PfHPPD336W (SEQ ID No 4); 0.2 μM inhibitor, HGD assay): 76% | herbicide tolerance ([2]; most soybean T1 plants expressing PfHPPD-Evo41, 25 g AI/ha): high tolerance | damaged leaf area ([2]; several soybean T1 plants expressing PfHPPD-Evo41, 50 g AI/ha): less than 5% | number of events, herbicide tolerance class 0 (41%-100% damaged leaf area) ([2]; 6.25 g AI/ha): 0 | number of events, herbicide tolerance class 1 (16%-40% damaged leaf area) ([2]; 6.25 g AI/ha): 0 | number of events, herbicide tolerance class 2 (6%-15% damaged leaf area) ([2]; 6.25 g AI/ha): 0 | number of events, herbicide tolerance class 3 (0%-5% damaged leaf area) ([2]; 6.25 g AI/ha): 12 | number of events, herbicide tolerance class 0 (41%-100% damaged leaf area) ([2]; 25 g AI/ha): 2 | number of events, herbicide tolerance class 1 (16%-40% damaged leaf area) ([2]; 25 g AI/ha): 8 | number of events, herbicide tolerance class 2 (6%-15% damaged leaf area) ([2]; 25 g AI/ha): 1 | number of events, herbicide tolerance class 3 (0%-5% damaged leaf area) ([2]; 25 g AI/ha): 21 | number of events, herbicide tolerance class 0 (41%-100% damaged leaf area) ([2]; 50 g AI/ha): 0 | number of events, herbicide tolerance class 1 (16%-40% damaged leaf area) ([2]; 50 g AI/ha): 1 | number of events, herbicide tolerance class 2 (6%-15% damaged leaf area) ([2]; 50 g AI/ha): 0 | number of events, herbicide tolerance class 3 (0%-5% damaged leaf area) ([2]; 50 g AI/ha): 3 | number of events, herbicide tolerance class 0 (41%-100% damaged leaf area) ([2]; 75 g AI/ha): 0 | number of events, herbicide tolerance class 1 (16%-40% damaged leaf area) ([2]; 75 g AI/ha): 4 | number of events, herbicide tolerance class 2 (6%-15% damaged leaf area) ([2]; 75 g AI/ha): 0 | number of events, herbicide tolerance class 3 (0%-5% damaged leaf area) ([2]; 75 g AI/ha): 0 | Efficacy (%) Amaranthus retroflexus (Amaranthus retroflexus): 65% | number of events, herbicide tolerance class 0 (41%-100% damaged leaf area) ([3]; 6.25 g AI/ha): 0 | number of events, herbicide tolerance class 1 (16%-40% damaged leaf area) ([3]; 6.25 g AI/ha): 0 | number of events, herbicide tolerance class 2 (6%-15% damaged leaf area) ([3]; 6.25 g AI/ha): 0 | number of events, herbicide tolerance class 3 (0%-5% damaged leaf area) ([3]; 6.25 g AI/ha): 12 | number of events, herbicide tolerance class 0 (41%-100% damaged leaf area) ([3]; 25 g AI/ha): 0 | number of events, herbicide tolerance class 1 (16%-40% damaged leaf area) ([3]; 25 g AI/ha): 0 | number of events, herbicide tolerance class 2 (6%-15% damaged leaf area) ([3]; 25 g AI/ha): 0 | number of events, herbicide tolerance class 3 (0%-5% damaged leaf area) ([3]; 25 g AI/ha): 16 | number of events, herbicide tolerance class 0 (41%-100% damaged leaf area) ([3]; 50 g AI/ha): 0 | number of events, herbicide tolerance class 1 (16%-40% damaged leaf area) ([3]; 50 g AI/ha): 4 | number of events, herbicide tolerance class 2 (6%-15% damaged leaf area) ([3]; 50 g AI/ha): 0 | number of events, herbicide tolerance class 3 (0%-5% damaged leaf area) ([3]; 50 g AI/ha): 0 | number of events, herbicide tolerance class 0 (41%-100% damaged leaf area) ([3]; 75 g AI/ha): 0 | number of events, herbicide tolerance class 1 (16%-40% damaged leaf area) ([3]; 75 g AI/ha): 3 | number of events, herbicide tolerance class 2 (6%-15% damaged leaf area) ([3]; 75 g AI/ha): 1 | number of events, herbicide tolerance class 3 (0%-5% damaged leaf area) ([3]; 75 g AI/ha): 0 | herbicide tolerance ([3]; in vivo): high tolerance | bleaching symptoms ([4]; all control events, 25 g of AI/ha): severe bleaching symptoms | leaf damage ([4]; control maize T0 events without HPPD variant, 25 g AI/ha): 100% | number of events, herbicide tolerance class 0 (41%-100% damaged leaf area) [4, 6]: 5* | number of events, herbicide tolerance class 1 (16%-40% damaged leaf area) [4, 6]: 0 | number of events, herbicide tolerance class 2 (6%-15% damaged leaf area) [4, 6]: 0 | number of events, herbicide tolerance class 3 (0%-5% damaged leaf area) [4, 6]: 0 | number of events, herbicide tolerance class 0 (41%-100% damaged leaf area) [4, 7]: 4 | number of events, herbicide tolerance class 1 (16%-40% damaged leaf area) [4, 7]: 0 | number of events, herbicide tolerance class 2 (6%-15% damaged leaf area) [4, 7]: 0 | number of events, herbicide tolerance class 3 (0%-5% damaged leaf area) [4, 7]: 0 | number of events, herbicide tolerance class 0 (41%-100% damaged leaf area) [4, 8]: 50 | number of events, herbicide tolerance class 1 (16%-40% damaged leaf area) [4, 8]: 0 | number of events, herbicide tolerance class 2 (6%-15% damaged leaf area) [4, 8]: 0 | number of events, herbicide tolerance class 3 (0%-5% damaged leaf area) [4, 8]: 0 | Efficacy (%) Digitaria horizontalis (Digitaria horizontalis): 70% | herbicide tolerance ([5]; most soybean T1 plants expressing PfHPPD-Evo40, 25 g AI/ha): high tolerance | number of events, herbicide tolerance class 0 (41%-100% damaged leaf area) ([5]; 6.25 g AI/ha): 0 | number of events, herbicide tolerance class 1 (16%-40% damaged leaf area) ([5]; 6.25 g AI/ha): 0 | number of events, herbicide tolerance class 2 (6%-15% damaged leaf area) ([5]; 6.25 g AI/ha): 0 | number of events, herbicide tolerance class 3 (0%-5% damaged leaf area) ([5]; 6.25 g AI/ha): 4 | number of events, herbicide tolerance class 0 (41%-100% damaged leaf area) ([5]; 25 g AI/ha): 2 | number of events, herbicide tolerance class 1 (16%-40% damaged leaf area) ([5]; 25 g AI/ha): 7 | number of events, herbicide tolerance class 2 (6%-15% damaged leaf area) ([5]; 25 g AI/ha): 1 | number of events, herbicide tolerance class 3 (0%-5% damaged leaf area) ([5]; 25 g AI/ha): 6 | number of events, herbicide tolerance class 0 (41%-100% damaged leaf area) ([5]; 50 g AI/ha): 0 | number of events, herbicide tolerance class 1 (16%-40% damaged leaf area) ([5]; 50 g AI/ha): 4 | number of events, herbicide tolerance class 2 (6%-15% damaged leaf area) ([5]; 50 g AI/ha): 0 | number of events, herbicide tolerance class 3 (0%-5% damaged leaf area) ([5]; 50 g AI/ha): 0 | number of events, herbicide tolerance class 0 (41%-100% damaged leaf area) ([5]; 75 g AI/ha): 0 | number of events, herbicide tolerance class 1 (16%-40% damaged leaf area) ([5]; 75 g AI/ha): 4 | number of events, herbicide tolerance class 2 (6%-15% damaged leaf area) ([5]; 75 g AI/ha): 0 | number of events, herbicide tolerance class 3 (0%-5% damaged leaf area) ([5]; 75 g AI/ha): 0 | inhibition at 0.2 µM (PfHPPD (SEQ ID No 46); 0.2 μM inhibitor): 76% | IC50 (PfHPPD (SEQ ID No 46); room temperature, 600 μM HPP, molar concentration, read-out: pI50 (converted)): 100 nM | inhibition at 0.2 µM (Axmi428H (SEQ ID No 31)): 71%
